# According to patent US6713048B2, “Δ9 tetrahydrocannabinol (Δ9 THC) solution metered dose inhalers and methods of use” (Virginia Commonwealth University, priority 1998, dated 2004):
# Legend:
# [1] = test system: Spasticity related to multiple sclerosis; conditions: 5 or 10 mg THC; 9 patients; cited from earlier work
# [2] = test system: Male ICR mice; assay: Antinociception, tail-flick test; format: in vivo; conditions: for % MPE (mean ± S.E.): 20 min after treatment
# Method: Male ICR mice, weighing approximately 30 g, obtained from Harlan Laboratories (Indianapolis, Ind.) were provided a light cycle of approximately 6 a.m. to 6 p.m., and the temperature remained approximately 23° C. The mice were placed in the lab and allowed to accommodate to the surroundings the evening prior to testing. Animals were allowed food (Harlan Teklab, Madison, Wis.) and water ad libitum.
# The exposure chamber was a modified, inverted, 1-liter separation funnel, housed under a fume hood, which allowed four mice to be simultaneously exposed to the aerosol. Air was drawn through the chamber at a rate of approximately 60 ml/minute and filtered through glass wool (Corning Inc., Corning, N.Y.) and charcoal traps (SKC Inc., Eighty Four, Pa.) upon exiting the exposure chamber. Each actuation of Δ^9-THC or vehicle was delivered once per 5 s and the entire exposure period was 10 min. Mice were exposed to 20, 40 or 60 actuations of aerosolized Δ^9-THC or 60 actuations of vehicle.
# Mice were placed in separate clear chambers (16.5 cm×25.5 cm×11.5 cm high) and assessed for hypomotility using a Digiscan Animal Activity Monitor (Omnitech Electronics Inc., Columbus, Ohio) in which the total number of photocell-light beam interruptions was counted. Antinociception was assessed in the tail-flick test (D'Amour, F. E., Smith, D. L., A method for determining loss of pain sensation, J Pharm Exp Ther, 72:74-79 (1941)) with heat intensity adjusted to give baseline latencies ranging from 2.0-4.0 seconds. A cut-off time of 10 seconds was used to limit tissue damage. Percent maximum possible effect (%MPE) was determined according to the following formula:
# %MPE=[(test latency-baseline latency)/(cut-off-baseline latency)]*100
# A ring-test procedure was used to assess catalepsy. The percent of time during a five minute observation period that mice remained motionless, except for movements related to respiration, while stationed on a 5.7 cm diameter ring stand 23 cm above the laboratory bench, was assessed. Body temperature was assessed by inserting a thermometer probe (Traceable Digital, Control Co., Friendswood, Tex.) 2.5 cm into the rectum. Subjects were assessed for baseline tail-flick latency and rectal temperature prior to drug or vehicle administration. […] Locomotor activity, tail-flick latency, catalepsy, and hypothermia were assessed 5, 20, 40, and 60 minutes, respectively, after aerosol exposure. An additional group of animals was given an i.v. injection of Δ^9-THC (0.3, 1, 3, or 10 mg/kg) or vehicle into a lateral tail vein and assessed in the tail-flick test 20 minutes later. All injections were given in a volume of 0.1 ml per 10 g animal weight.
# The statistical analysis of the data was as follows. Data are represented by means±standard error (s.e.). Statistical analysis of the data was performed using Student t-tests (for the physiochemical comparisons of the aerosol), or ANOVA (for pharmacological studies), with significance set at p<0.05. Post hoc tests for significant ANOVAs included either Dunnett's test or Tukey/Kramer post-hoc analysis. […] A sample size of 6-8 mice was used in each group.
# [3] = test system: Spasticity related to multiple sclerosis; conditions: oral 5 to 15 mg THC; 8 patients, single blind; cited from earlier work
smiles,measurement,setting,value
"CCCCCc1cc(O)c2c(c1)OC(C)(C)[C@@H]1CCC(C)=C[C@@H]21 (relative stereo) [Δ^9 THC, (6aR-trans)-6a,7,8,10a-tetrahydro-6,6,9-trimethyl-3-pentyl-6H-dibenzo[b,d]-pyran-1-ol]",side effects,[1],"treatment, minimal side"
same,spasticity compared to placebo treatment,[1],Decrease in spasticity
same,ED50,"[2]; Mus musculus, intravenous, read-out: antinociceptive ED50 (95% C.L.)",2.4 mg/kg
same,antinociceptive ED50 (95% C.L.),[2]; inhalation,30 (20-44) actuations
same,% MPE (mean ± S.E.),"[2]; inhalation, 20 actuations",37 ± 11 % MPE
same,% MPE (mean ± S.E.),"[2]; inhalation, 40 actuations",58 ± 14 % MPE
same,% MPE (mean ± S.E.),"[2]; inhalation, 60 actuations",78 ± 11 % MPE
same,% MPE (mean ± S.E.),"[2]; intravenous, 1 mg/kg",31 ± 8 % MPE
same,% MPE (mean ± S.E.),"[2]; intravenous, 3 mg/kg",70 ± 14 % MPE
same,% MPE (mean ± S.E.),"[2]; intravenous, 10 mg/kg",67 ± 11 % MPE
same,patients with both objective and subjective improvement,[3],tremor. 2 of 8 patients had
same,patients with mild subjective improvement in tremor,[3],5 of 8 patients had mild
